Measurements taken from patent US8183001B2 (priority 2006, dated 2012).

Experiments:
M1 chimera = M1 chimera (Caenorhabditis elegans, UniProt G5ECD3+G5EE10); format: cell-based, C. elegans; conditions: at EC50 GABA
Protocol: (§1) Electrophysiology: Plasmids containing wild-type and mutagenized GABAA receptor subunits were linearized and transcribed in vitro using T3 RNA polymerase (mMessage mMachine T3 kit, Ambion, Austin Tex.). UNC-49B mRNA was injected into Xenopus laevis oocytes at 0.5 μg/μl either alone, or in a mixture with 0.5 μg/μl UNC-49C. […] The injection volume ranged between 27.6 nl to 50.6 nl. […] Cells were voltage clamped at −60 mV. All recordings were performed at room temperature.

N305R = N305R (Caenorhabditis elegans, UniProt G5ECD3, N305R); format: cell-based, C. elegans; conditions: at EC50 GABA
Protocol: as §1

UNC-49B homomer = UNC-49B homomer (Caenorhabditis elegans, UniProt G5ECD3); format: cell-based, C. elegans; conditions: UNC-49B homomer
Protocol: as §1

X chimera = X chimera (Caenorhabditis elegans, UniProt G5ECD3, I262F/M258L/N259Q/N305R/S264A/T257F/V261F); format: cell-based, C. elegans; conditions: at EC50 GABA
Protocol: as §1

X(I265S) = X(I265S) (Caenorhabditis elegans, UniProt G5ECD3, I262F/I265S/M258L/N259Q/N305R/S264A/T257F/V261F); format: cell-based, C. elegans; conditions: at EC50 GABA
Protocol: as §1

X(T269V) = X(T269V) (Caenorhabditis elegans, UniProt G5ECD3, I262F/M258L/N259Q/N305R/S264A/T257F/T269V/V261F); format: cell-based, C. elegans; conditions: at EC50 GABA
Protocol: as §1

X(V273I) = X(V273I) (Caenorhabditis elegans, UniProt G5ECD3, I262F/M258L/N259Q/N305R/S264A/T257F/V261F/V273I); format: cell-based, C. elegans; conditions: at EC50 GABA
Protocol: as §1

XY chimera = format: cell-based, C. elegans; conditions: XY chimera versus X chimera
Protocol: as §1

Z chimera = Z chimera (Caenorhabditis elegans, UniProt G5ECD3, A281S/E280D/L277I/N259Q/N305R/S282A/V261F); format: cell-based, C. elegans; conditions: at EC50 GABA
Protocol: as §1

UNC-49B/C heteromer = UNC-49B/C heteromer (Caenorhabditis elegans, UniProt G5ECD3+G5EE10); format: cell-based; conditions: UNC-49B/C heteromer
Protocol: as §1

Y(S264A) = Y(S264A) (Caenorhabditis elegans, UniProt G5ECD3, I265S/I267V/I270L/N259Q/N305R/S264A/T269V/V261F/V273I); format: cell-based, C. elegans; conditions: at EC50 GABA
Protocol: as §1
(§2) Important residues in the X segment were tested by substituting UNC-49C residues into the Y chimera. […] These divergent X segment residues were tested by mutating them from UNC-49B to UNC-49C amino acids in the Y chimera background.

Y(T257F) = Y(T257F) (Caenorhabditis elegans, UniProt G5ECD3, I265S/I267V/I270L/N259Q/N305R/T257F/T269V/V261F/V273I); format: cell-based, C. elegans
Protocol: as §1, §2

Y(T257F/M258L) = Y(T257F/M258L) (Caenorhabditis elegans, UniProt G5ECD3, I265S/I267V/I270L/M258L/N259Q/N305R/T257F/T269V/V261F/V273I); format: cell-based, C. elegans; conditions: at EC50 GABA
Protocol: as §1, §2

Y(T257F/M258L/S264A) = Y(T257F/M258L/S264A) (Caenorhabditis elegans, UniProt G5ECD3, I265S/I267V/I270L/M258L/N259Q/N305R/S264A/T257F/T269V/V261F/V273I); format: cell-based, C. elegans; conditions: at EC50 GABA
Protocol: as §1, §2

Y(T257F/S264A) = Y(T257F/S264A) (Caenorhabditis elegans, UniProt G5ECD3, I265S/I267V/I270L/N259Q/N305R/S264A/T257F/T269V/V261F/V273I); format: cell-based, C. elegans
Protocol: as §1, §2

Y(M258L) = target: T1, Y(M258L) (Caenorhabditis elegans, UniProt G5ECD3, I265S/I267V/I270L/M258L/N259Q/N305R/T269V/V261F/V273I); format: cell-based, C. elegans; conditions: M258L mutant; median of 1000 bootstrap trials
T1 sequence (G5ECD3 23-506 M258L/N259Q/V261F/I265S/I267V/T269V/I270L/V273I/N305R): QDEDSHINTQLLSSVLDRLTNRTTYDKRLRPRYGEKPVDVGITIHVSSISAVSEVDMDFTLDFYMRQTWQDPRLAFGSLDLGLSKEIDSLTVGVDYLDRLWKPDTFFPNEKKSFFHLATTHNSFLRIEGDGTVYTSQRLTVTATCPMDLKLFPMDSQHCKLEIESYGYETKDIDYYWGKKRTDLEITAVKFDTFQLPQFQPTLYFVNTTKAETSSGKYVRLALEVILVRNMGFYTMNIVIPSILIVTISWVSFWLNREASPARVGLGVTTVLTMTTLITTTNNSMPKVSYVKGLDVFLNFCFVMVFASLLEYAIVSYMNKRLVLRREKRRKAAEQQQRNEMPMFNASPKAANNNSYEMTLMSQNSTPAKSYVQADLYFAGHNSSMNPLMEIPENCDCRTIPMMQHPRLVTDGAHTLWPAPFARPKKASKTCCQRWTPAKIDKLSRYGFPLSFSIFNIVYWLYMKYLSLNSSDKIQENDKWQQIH
Protocol: as §1
(§3) Error bars in the figures are standard error of the mean. All drugs were obtained from Sigma (St. Louis). […] Picrotoxin was prepared as a 100 mM stock in DMSO.
as §2

Y(M258L/S264A) = target: T2, Y(M258L/S264A) (Caenorhabditis elegans, UniProt G5ECD3, I265S/I267V/I270L/M258L/N259Q/N305R/S264A/T269V/V261F/V273I); format: cell-based, C. elegans; conditions: M258L/S264A mutant; median of 1000 bootstrap trials
T2 sequence (G5ECD3 23-506 M258L/N259Q/V261F/S264A/I265S/I267V/T269V/I270L/V273I/N305R): T1 sequence (G5ECD3 23-506 M258L/N259Q/V261F/I265S/I267V/T269V/I270L/V273I/N305R)
Protocol: as §1, §3, §2

Sequence of UNC-49B/C heteromer (G5EE10 entry or part of it, one chain of several): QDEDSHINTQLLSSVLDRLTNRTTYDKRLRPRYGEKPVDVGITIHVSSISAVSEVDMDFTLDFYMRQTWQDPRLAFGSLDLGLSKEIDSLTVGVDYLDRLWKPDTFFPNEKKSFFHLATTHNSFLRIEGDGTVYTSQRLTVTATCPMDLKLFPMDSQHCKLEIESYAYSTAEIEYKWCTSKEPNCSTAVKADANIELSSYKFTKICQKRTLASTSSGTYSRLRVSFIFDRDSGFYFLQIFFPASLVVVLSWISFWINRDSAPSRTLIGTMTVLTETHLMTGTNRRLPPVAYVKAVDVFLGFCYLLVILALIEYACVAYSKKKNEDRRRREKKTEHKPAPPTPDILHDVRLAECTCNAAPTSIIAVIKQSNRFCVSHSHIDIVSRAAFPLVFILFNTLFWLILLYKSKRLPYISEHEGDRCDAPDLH
Sequence of M1 chimera (G5ECD3 entry or part of it, change not shown): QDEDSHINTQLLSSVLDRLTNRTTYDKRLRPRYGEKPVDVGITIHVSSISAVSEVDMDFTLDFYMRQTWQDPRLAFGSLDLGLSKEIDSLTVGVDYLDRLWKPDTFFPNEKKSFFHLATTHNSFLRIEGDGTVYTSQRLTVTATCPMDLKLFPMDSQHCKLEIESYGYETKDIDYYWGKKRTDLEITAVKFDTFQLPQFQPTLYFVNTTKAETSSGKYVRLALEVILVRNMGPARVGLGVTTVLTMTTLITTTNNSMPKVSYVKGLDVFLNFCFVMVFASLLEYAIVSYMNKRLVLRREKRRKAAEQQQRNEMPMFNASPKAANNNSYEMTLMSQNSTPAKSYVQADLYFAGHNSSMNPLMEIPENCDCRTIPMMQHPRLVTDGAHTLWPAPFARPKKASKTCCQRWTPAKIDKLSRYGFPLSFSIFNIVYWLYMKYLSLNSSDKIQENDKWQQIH
Sequence of M1 chimera (G5EE10 256-283, change not shown): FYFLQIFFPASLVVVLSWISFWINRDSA

pregnenolone sulfate [PS]
PS Slope coefficient (M1 chimera): 0.9 ± 0.1 (n = 4) | PS Slope coefficient (N305R): 1.9 ± 0.2 (n = 4) | inhibition of GABA-evoked current (UNC-49B homomer; 100 μM PS, EC50 GABA): 40% | PS Slope coefficient (UNC-49B homomer; at EC50 GABA): 0.7 | PS Slope coefficient (X chimera): 1.0 ± 0.03 | PS Slope coefficient (X(I265S)): 1.1 ± 0.1 | PS Slope coefficient (X(T269V)): 1.2 ± 0.1 | PS Slope coefficient (X(V273I)): 1.0 ± 0.02 | fold increase in PS sensitivity (XY chimera): 3.7 fold | PS Slope coefficient (Z chimera): 1.05 ± 0.03 | inhibition of GABA-evoked current (UNC-49B/C heteromer; 100 μM PS, EC50 GABA): 95% | PS Slope coefficient (UNC-49B/C heteromer; at EC50 GABA): 0.9 ± 0.1 (n = 4) | PS Slope coefficient (Y(S264A)): 5.3 ± 1.8 | reduction of the holding current by PS alone, relative to EC50 GABA-evoked current (Y(T257F); T257F point mutant, 100 μM PS): 6-20% | PS Slope coefficient (Y(T257F); Y(T257F), at EC50 GABA): 1.3 ± 0.06 | PS Slope coefficient (Y(T257F/M258L)): 2.3 ± 0.2 | PS Slope coefficient (Y(T257F/M258L/S264A)): 1.44 ± 0.1 | reduction of the holding current by PS alone, relative to EC50 GABA-evoked current (Y(T257F/S264A); T257F/S264A point mutant, 100 μM PS): 6-20% | PS Slope coefficient (Y(T257F/S264A); Y(T257F/S264A), at EC50 GABA): 0.9 ± 0.08 | A, amplitude of normalized current above 1 (biphasic fit) (Y(M258L)): 1.56 | nE, slope coefficient for the enhancement (Y(M258L)): 1.0 | nI, slope coefficient for the inhibition (Y(M258L)): 1.8 | A, amplitude of normalized current above 1 (biphasic fit) (Y(M258L/S264A)): 1.0 | nE, slope coefficient for the enhancement (Y(M258L/S264A)): 1.3 | nI, slope coefficient for the inhibition (Y(M258L/S264A)): 1 .9
